Measurements published in PubChem BioAssay (NCI).
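Test compounds were applied to cells in 96-well plates for 48 hours at 5 doses. TGI: total growth inhibition.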

Tests used:
Assay in all cases: growth of human tumour cells (NCI), 48 h
[1] = tested on: SW-620 colon
[2] = tested on: SNB-75 CNS
[3] = tested on: HOP-62 NSCLC
[4] = tested on: UO-31 renal
[5] = tested on: HS 578T breast
[6] = tested on: 786-0 renal
[7] = tested on: EKVX NSCLC
[8] = tested on: RXF 393 renal
[9] = tested on: SR leukemia
[10] = tested on: A498 renal
[11] = tested on: HOP-92 NSCLC
[12] = tested on: MDA-MB-435
[13] = tested on: MOLT-4 leukemia
[14] = tested on: M14 melanoma
[15] = tested on: NCI-H23 lung
[16] = tested on: HT29 colon
[17] = tested on: KM12 colon
[18] = tested on: IGROV1 ovarian
[19] = tested on: COLO 205 colon
[20] = tested on: NCI/ADR-RES ovarian
[21] = tested on: SN12C renal
[22] = tested on: LOX IMVI melanoma
[23] = tested on: HL-60(TB) leukemia
[24] = tested on: CAKI-1 renal
[25] = tested on: U251 CNS
[26] = tested on: RPMI-8226 leukemia
[27] = tested on: SNB-19 CNS
[28] = tested on: TK-10 renal
[29] = tested on: OVCAR-4 ovarian
[30] = tested on: DU-145 prostate
[31] = tested on: ACHN renal
[32] = tested on: BT-549 breast
[33] = tested on: PC-3 prostate
[34] = tested on: NCI-H226 lung
[35] = tested on: HCT-116 colon
[36] = tested on: OVCAR-5 ovarian
[37] = tested on: NCI-H522 lung
[38] = tested on: SK-MEL-2 melanoma
[39] = tested on: UACC-257 melanoma
[40] = tested on: NCI-H460 lung
[41] = tested on: MDA-MB-231 breast
[42] = tested on: HCT-15 colon
[43] = tested on: MALME-3M melanoma
[44] = tested on: SK-MEL-28 melanoma
[45] = tested on: HCC-2998 colon
[46] = tested on: UACC-62 melanoma
[47] = tested on: K-562 leukemia
[48] = tested on: T-47D breast
[49] = tested on: CCRF-CEM leukemia
[50] = tested on: SF-268 CNS
[51] = tested on: A549 NSCLC
[52] = tested on: OVCAR-3 ovarian
[53] = tested on: OVCAR-8 ovarian
[54] = tested on: MDA-N
[55] = tested on: SF-295 CNS
[56] = tested on: SF-539 CNS
[57] = tested on: SK-MEL-5 melanoma
[58] = tested on: MCF7 breast
[59] = tested on: SK-OV-3 ovarian

Measured: TGI

N/C1=C/C(=O)NC(=O)c2c(c3ccccc3oc2=O)C1
not listed: [55] | [56] | [57] | [58] | [59]
> 100 µM: all other assays above

C/C(=C/CC[C@]1(CO)CC[C@]2(C)[C@H](CC[C@@H]3[C@@]4(C)CC[C@H](OC5OC(CO)C(O)C(O)C5OC5OC(CO)C(O)C(O)C5O)C(C)(C)[C@@H]4CC[C@]32C)[C@H]1O)CO (stereo partly specified)
not listed: [38] | [45]
> 100 µM: all other assays above
